What was measured:
Assay type in all cases: biochemical
PKC γ = PKC γ (Homo sapiens, UniProt P05129); experiment: Protein Kinase C Histone-Based Assay, γ isoform; conditions: histone III substrate, 30 μM ATP, 10 min at 30° C.; read-out: PKC Activity (IC50 μM, Histone Based Assay) Gamma
Procedure: (§1) Compounds were evaluated for PKC selectivity using histone III as the substrate. […] The reaction was incubated for 10 min at 30° C. Reactions were terminated by TCA precipitation and spotting on Whatman P81 filters. Filters were washed in 75 mM phosphoric acid and the radioactivity quantified by liquid scintillation counting.

PKC β-II = PKC β-II (Homo sapiens, UniProt P05771); experiment: Protein Kinase C Histone-Based Assay, β-II isoform; conditions: histone III substrate, 30 μM ATP, 10 min at 30° C.; read-out: PKC Activity (IC50 μM, Histone Based Assay) Beta II
Procedure: as §1

PKC α = PKC α (Homo sapiens, UniProt P17252); experiment: Protein Kinase C Histone-Based Assay, α isoform; conditions: histone III substrate, 30 μM ATP, 10 min at 30° C.; read-out: PKC Activity (IC50 μM, Histone Based Assay) Alpha
Procedure: as §1

Chain of PKC β-II (P05771 1-673 isoform P05771-2): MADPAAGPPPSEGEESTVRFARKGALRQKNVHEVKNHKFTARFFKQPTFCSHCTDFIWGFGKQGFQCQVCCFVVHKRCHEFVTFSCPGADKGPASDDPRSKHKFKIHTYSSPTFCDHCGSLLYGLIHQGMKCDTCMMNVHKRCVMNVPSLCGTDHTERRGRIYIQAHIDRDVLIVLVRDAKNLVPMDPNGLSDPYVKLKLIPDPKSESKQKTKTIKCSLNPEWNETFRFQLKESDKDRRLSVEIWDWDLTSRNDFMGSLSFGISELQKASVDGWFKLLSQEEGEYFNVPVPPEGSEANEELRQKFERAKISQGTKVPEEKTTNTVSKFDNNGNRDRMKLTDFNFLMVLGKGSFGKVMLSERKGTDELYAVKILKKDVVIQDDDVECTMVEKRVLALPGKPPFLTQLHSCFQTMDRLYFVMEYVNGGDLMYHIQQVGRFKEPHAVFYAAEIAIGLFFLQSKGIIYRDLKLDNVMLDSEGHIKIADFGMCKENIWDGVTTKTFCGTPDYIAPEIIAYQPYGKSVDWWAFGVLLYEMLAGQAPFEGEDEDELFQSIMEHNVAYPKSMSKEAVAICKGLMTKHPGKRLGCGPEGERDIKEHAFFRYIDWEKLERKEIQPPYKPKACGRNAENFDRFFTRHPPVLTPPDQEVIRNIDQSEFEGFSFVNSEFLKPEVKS

Row | SMILES | IC50 (PKC γ) [µM] | IC50 (PKC β-II) [µM] | IC50 (PKC α) [µM]
1 | CN(C)CCCn1nc(C2=C(c3cn(-c4cccs4)c4ccccc34)C(=O)NC2=O)c2ccccc21 [Compound 9, 3-[1-[3-(dimethylamino)propyl]-1H-indazol-3-yl]-4-[1-(2-thienyl)-1H-indol-3-yl]-1H-pyrrole-2,5-dione] | 0.262 | 0.008 | 0.141
2 | CN(C)CCCn1nc(C2=C(c3cn(-c4cccnc4)c4ccccc34)C(=O)NC2=O)c2ccccc21 [Compound 12, 3-[1-[3-(dimethylamino)propyl]-1H-indazol-3-yl]-4-[1-(3-pyridinyl)-1H-indol-3-yl]-H-pyrrole-2,5-dione] | 0.213 | 0.007 | 0.124
3 | CN(C)CCCn1nc(C2=C(c3cn(-c4cccnc4)c4ccc(Cl)cc34)C(=O)NC2=O)c2ccccc21 [Compound 13, 3-[5-chloro-1-(3-pyridinyl)-1H-indol-3-yl]-4-[1-[3-(dimethylamino)propyl]-1H-indazol-3-yl]-1H-pyrrole-2,5-dione] | 0.045 | 0.004 | 0.011
4 | CN(C)CCCn1nc(C2=C(c3cn(-c4ccc5ccccc5c4)c4ccccc34)C(=O)NC2=O)c2ccccc21 [Compound 14, 3-[1-[3-(dimethylamino)propyl]-1H-indazol-3-yl]-4-[1-(2-naphthalenyl)-1H-indol-3-yl]-1H-pyrrole-2,5-dione] | 0.115 | 0.005 | 0.057
5 | CN(C)CCCn1nc(C2=C(c3cn(-c4cccc5ccccc45)c4ccccc34)C(=O)NC2=O)c2ccccc21 [Compound 15, 3-[1-[3-(dimethylamino)propyl]-1H-indazol-3-yl]-4-[1-(1-naphthalenyl)-1H-indol-3-yl]-1H-pyrrole-2,5-dione] | 3.35 | 0.029 | 1.23
6 | CN(C)CCCn1nc(C2=C(c3cn(-c4cncc5ccccc45)c4ccccc34)C(=O)NC2=O)c2ccccc21 [Compound 16, 3-[1-[3-(dimethylamino)propyl]-1H-indazol-3-yl]-4-[1-(4-isoquinolinyl)-1H-indol-3-yl]-1H-pyrrole-2,5-dione] | 0.253 | 0.015 | 0.29
7 | CN(C)CCCn1nc(C2=C(c3cn(-c4cnc5ccccc5c4)c4ccccc34)C(=O)NC2=O)c2ccccc21 [Compound 19, 3-[1-[3-(dimethylamino)propyl]-1H-indazol-3-yl]-4-[1-(3-quinolinyl)-1H-indol-3-yl]-1H-pyrrole-2,5-dione] | 0.047 | 0.004 | 0.011

More lines, now with the values ahead:

Row | IC50 (PKC γ) [µM] | IC50 (PKC β-II) [µM] | IC50 (PKC α) [µM] | SMILES
8 | 0.09 | 0.006 | 0.043 | O=C1NC(=O)C(c2nn(CCCN3CCOCC3)c3ccccc23)=C1c1cn(-c2cnc3ccccc3c2)c2ccccc12 [Compound 22, 3-[1-[3-(4-morpholinyl)propyl]-1H-indazol-3-yl]-4-[1-(3-quinolinyl)-1H-indol-3-yl]-1H-pyrrole-2,5-dione]
9 | 0.188 | 0.054 | 0.546 | O=CCCn1nc(C2=C(c3cn(-c4cnc5ccccc5c4)c4ccccc34)C(=O)NC2=O)c2ccccc21 [Compound 23, 3-[2,5-dihydro-2,5-dioxo-4-[1-(3-quinolinyl)-1H-indol-3-yl]-1H-pyrrol-3-yl]-1H-indazole-1-propionaldehyde]
10 |  | 0.026 |  | CN(C)CCn1nc2ccccc2c1C1=C(c2cn(-c3csc4ccccc34)c3ccccc23)C(=O)NC1=O [Compound 123, 3-(1-benzo[b]thien-3-yl-1H-indol-3-yl)-4-[2-[2-(dimethylamino)ethyl]-2H-indazol-3-yl]-1H-pyrrole-2,5-dione]
11 |  | 0.005 | 0.339 | CN(C)CCCn1nc(C2=C(c3cn(-c4cccnc4)c4ccccc34)C(=O)NC2)c2ccccc21 [Compound 125, 4-[1-[3-(dimethylamino)propyl]-1H-indazol-3-yl]-1,5-dihydro-3-[1-(3-pyridinyl)-1H-indol-3-yl]-2H-pyrrol-2-one]

— patent US7329657B2, “Indazolyl-substituted pyrroline compounds as kinase inhibitors” (Ortho-McNeil Pharmaceutical, Inc., priority 2000, dated 2008)
